This passage reports IC50 results from patent publication US20060079453A1, “Hla binding peptides and their uses” (priority 2002, published 2006).

Some targets named below: HLA-DR DRB1*0301 (DR3) (Homo sapiens, UniProt P01903+P01911, A100K/A102G/A103R/A169T/F55Y/I96L/K41T/L162R/M171V/P40S/Q125H/Q178H/Q39Y/R42S/S66N/T106N/T262R/W38E/Y61H); HLA-DR DRB1*0802 (DR8) (Homo sapiens, UniProt P01903+P01911, A100R/A103L/A169T/F76Y/H45Y/I96F/K41T/L162R/M171V/P40S/Q125H/Q178H/Q39Y/Q99D/R218S/R42G/S66Y/V115G/W38E); HLA-DR DRB3*0101 (DR52) (Homo sapiens, UniProt P01903+P79483).

Assay in all cases: biochemical
Holding throughout (type): binding

The target in another test is HLA-DR DRB1*0901 (DR9) (Homo sapiens, UniProt P01903+P01911, A100R/A103E/D57H/D86V/F55Y/F60I/F76Y/I96F/K127E/L162R/M171V/P40D/Q125H/Q99R/R33Q/R42F/S133A/S66N/T210M/V115G/W38K/Y107V/Y59G/Y89S). The note with it: DRB1 *0901.
The target in the next test is HLA-DR DRB1*1101 (DR11) (Homo sapiens, UniProt P01903+P01911, A100R/A169T/A87E/I96F/K41T/L162R/M171V/P40S/Q125H/Q178H/Q39Y/Q99D/R42S/S66Y/T262R/V115G/W38E). The note with it: DRB1 *1101.
The next test deals with HLA-DR DRB1*0101 (DR1) (Homo sapiens, UniProt P01903+P01911, A100R/D57E/F55L/F60I/F76Y/I96L/L162R/M171V/P40L/Q125E/R42F/V115G/Y59C). The note with it: DRB1 *0101.
The next test deals with HLA-DR DRB1*0401 (DR4) (Homo sapiens, UniProt P01903+P01911, A100K/A169T/F76Y/I96L/K127E/L162R/M171V/N62H/P40V/Q125Y/R42H/S133A/S149N/S66Y/V115G/V209L/W38E). The note with it: DRB1 *0401.
A further test deals with HLA-DR DRB1*0701 (DR7) (Homo sapiens, UniProt P01903+P01911, A100R/A102G/A103Q/D57E/D86V/E43K/F76Y/K127E/L162R/M171V/P40G/Q125H/Q99D/R33Q/R42Y/R54Q/S133A/S66F/T210M/V115G/Y107V/Y59L/Y89S). The note with it: DRB1 *0701.
Another test deals with HLA-DR DRB1*1501 (DR15) (Homo sapiens, UniProt P01903+P01911). The note with it: DRBI *1501.
The target of another test is HLA-DR DRB1*1302 (DR13) (Homo sapiens, UniProt P01903+P01911, A100E/A169T/K41T/L162R/M171V/P40S/Q125H/Q178H/Q39Y/Q99D/R42S/S66N/T262R/V115G/W38E/Y61H). The note with it: DRBI *1302.
Another test concerns the target HLA-DR DRB5*0101 (DR51) (Homo sapiens, UniProt P01903+Q30154). The note with it: DRB5 *0101.
The target in the next test is HLA-DR DRB4*0101 (DR53) (Homo sapiens, UniProt P01903+P13762, G164S). The note with it: DRB4 *0101.

pIC50: −log10 of the molar value. No end group written: not given here.

Sequence of HLA-DR DRB1*1302 (DR13) (P01903 26-254 limits assumed, other chains not shown): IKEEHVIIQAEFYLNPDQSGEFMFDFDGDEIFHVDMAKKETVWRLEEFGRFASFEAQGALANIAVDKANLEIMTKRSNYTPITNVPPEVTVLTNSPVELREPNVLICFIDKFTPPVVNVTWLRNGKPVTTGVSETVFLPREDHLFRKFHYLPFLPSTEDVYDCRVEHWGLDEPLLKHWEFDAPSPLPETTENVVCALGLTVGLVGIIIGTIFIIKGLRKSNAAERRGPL
Sequence of HLA-DR DRB1*1101 (DR11) (P01903 26-254 limits assumed, other chains not shown): as above
Sequence of HLA-DR DRB1*0301 (DR3) (P01903 26-254 limits assumed, other chains not shown): as above

By pIC50 is commonly meant the IC50 on a negative log10 scale, so that one unit is a factor of ten. Low readings indicate a high IC50, high ones a low IC50. As to ITDSRVLERYLLEAK, the pIC50 against HLA-DR DRB1*0901 (DR9) was less than 4.10; on HLA-DR DRB1*0301 (DR3), 5.19; against HLA-DR DRB1*1101 (DR11), 5.28; on HLA-DR DRB1*0101 (DR1), 5.80; at HLA-DR DRB1*0401 (DR4), 5.89; against HLA-DR DRB1*0701 (DR7) it was 5.13. In addition, the pIC50 was 7.74 on HLA-DR DRB1*1501 (DR15), less than 4.83 on HLA-DR DRB1*1302 (DR13), 6.01 against HLA-DR DRB1*0802 (DR8) and less than 4.37 on HLA-DR DRB3*0101 (DR52).
In the case of TSITSLYQLENYTN, the pIC50 against HLA-DR DRB1*0901 (DR9) was 5.00; at HLA-DR DRB1*0301 (DR3), 4.09; at HLA-DR DRB1*1101 (DR11), 5.96; against HLA-DR DRB5*0101 (DR51) it was 5.22; against HLA-DR DRB1*0701 (DR7), 5.22; on HLA-DR DRB1*1501 (DR15), 7.00. Further, the pIC50 is less than 4.77 at HLA-DR DRB1*1302 (DR13), 4.57 against HLA-DR DRB1*0802 (DR8) and less than 4.02 against HLA-DR DRB3*0101 (DR52).
In the case of `CC[C@H](C)[C@H](NC(=O)[C@H](CCCNC(=N)N)NC(=O)[C@@H](N)[C@@H](C)O)C(=O)N[C@@H](Cc1ccc(O)cc1)C(=O)N[C@@H](CC(N)=O)C(=O)N[C@H](C(=O)N[C@H](C(=O)NCC(=O)N[C@H](C(=O)N[C@@H](CC(C)C)C(=O)N[C@@H](CCCNC(=N)N)C(=O)NCC(=O)N[C@@H](C)C(=O)N[C@H](C(=O)N[C@@H](CCC(=O)O)C(=O)O)C(C)C)[C@@H](C)O)[C@@H](C)CC)C(C)C`, the pIC50 at HLA-DR DRB1*0901 (DR9) was 5.54; at HLA-DR DRB4*0101 (DR53), 6.35; against HLA-DR DRB1*0301 (DR3), 4.48; against HLA-DR DRB1*1101 (DR11) it was 7.35; on HLA-DR DRB1*0101 (DR1), 7.85; on HLA-DR DRB1*0401 (DR4) it was 8.20. The pIC50 at HLA-DR DRB5*0101 (DR51) is 7.49; at HLA-DR DRB1*0701 (DR7), 5.32; at HLA-DR DRB1*1302 (DR13) it was 5.84; against HLA-DR DRB1*0802 (DR8) it was 7.15; at HLA-DR DRB3*0101 (DR52), 4.76.
For GRLEYTLKDRRNFDI, the pIC50 against HLA-DR DRB1*0901 (DR9) was less than 4.11; at HLA-DR DRB1*0301 (DR3), 7.52; on HLA-DR DRB1*1101 (DR11), 5.30; against HLA-DR DRB1*0101 (DR1), 5.14; against HLA-DR DRB5*0101 (DR51) it was 6.10; against HLA-DR DRB1*0701 (DR7) it was 5.30. Further, the pIC50 on HLA-DR DRB1*1501 (DR15) was 6.77; on HLA-DR DRB1*0802 (DR8), 5.31; at HLA-DR DRB3*0101 (DR52), 5.00.
Turning to `CC[C@H](C)[C@H](NC(=O)[C@@H](NC(=O)[C@H](Cc1c[nH]cn1)NC(=O)[C@@H](N)CC(C)C)C(C)C)C(=O)N[C@@H](CO)C(=O)N[C@@H](CC(N)=O)C(=O)N[C@@H](CC(=O)O)C(=O)N[C@H](C(=O)N[C@@H](CS)C(=O)N[C@@H](C)C(=O)N[C@@H](CCC(N)=O)C(=O)N[C@H](C(=O)N[C@@H](Cc1c[nH]cn1)C(=O)N1CCC[C@H]1C(=O)N[C@@H](CCC(N)=O)C(=O)O)C(C)C)C(C)C`, the pIC50 on HLA-DR DRB1*0901 (DR9) was 4.49; against HLA-DR DRB4*0101 (DR53) it was 5.96; against HLA-DR DRB1*0301 (DR3), 5.08; against HLA-DR DRB1*1101 (DR11), less than 4.30; at HLA-DR DRB1*0101 (DR1), 6.10; against HLA-DR DRB1*0401 (DR4), 6.10. The pIC50 is less than 3.70 at HLA-DR DRB5*0101 (DR51); 4.76 on HLA-DR DRB1*0701 (DR7); 4.64 at HLA-DR DRB1*1501 (DR15); less than 3.91 on HLA-DR DRB1*0802 (DR8); 5.72 on HLA-DR DRB3*0101 (DR52).
As to `CC[C@H](C)[C@H](NC(=O)[C@H](Cc1ccccc1)NC(=O)[C@H](Cc1c[nH]c2ccccc12)NC(=O)CNC(=O)[C@H](Cc1ccccc1)NC(=O)[C@H](CC(C)C)NC(=O)[C@H](Cc1ccccc1)NC(=O)CNC(=O)[C@@H](N)CC(C)C)C(=O)N[C@@H](CCCCN)C(=O)N[C@@H](CO)C(=O)N[C@@H](CO)C(=O)N[C@@H](CC(N)=O)C(=O)N[C@@H](CCC(=O)O)C(=O)N[C@@H](C)C(=O)O`, the pIC50 on HLA-DR DRB1*0901 (DR9) was 5.77; at HLA-DR DRB4*0101 (DR53), 5.03; at HLA-DR DRB1*0301 (DR3), less than 4.12; on HLA-DR DRB1*1101 (DR11) it was 5.14; against HLA-DR DRB1*0101 (DR1), 8.00; against HLA-DR DRB1*0401 (DR4) it was 5.87. In addition, the pIC50 against HLA-DR DRB5*0101 (DR51) is 6.34; on HLA-DR DRB1*0701 (DR7) it was 5.65; against HLA-DR DRB1*1302 (DR13), 5.00; against HLA-DR DRB1*0802 (DR8), 5.85; against HLA-DR DRB3*0101 (DR52), 6.17.
Take SNLELLRISLLLIQS: the pIC50 is 5.47 against HLA-DR DRB1*0901 (DR9); 4.36 on HLA-DR DRB1*0301 (DR3); 4.63 against HLA-DR DRB1*1101 (DR11); 7.14 at HLA-DR DRB1*0101 (DR1); 4.30 at HLA-DR DRB5*0101 (DR51); 6.19 against HLA-DR DRB1*0701 (DR7). Also, the figures for the pIC50 against HLA-DR DRB1*1501 (DR15), against HLA-DR DRB1*0802 (DR8) and at HLA-DR DRB3*0101 (DR52) were 7.23, less than 4.48 and less than 4.04, respectively.
